Laboratory results reported in publication PMC5036131, “Fragment-based discovery of a new family of non-peptidic small-molecule cyclophilin inhibitors with potent antiviral activities” (Nature Communications, 2016).
Like-named read-outs stand apart in the source and are kept apart here.

Key:
[1] = molecular target: CYP2C9 (Homo sapiens, UniProt P11712); test: Metabolism by recombinant human cytochrome P450, CYP2C9; type: in vitro ADME; conditions: recombinant enzyme
Experimental: (§1) […] of compound was incubated with individual bacterially expressed recombinant human cytochromes P450 co-expressed with human NADPH cytochrome P450 reductase. […] Enzyme-selective positive control substrates were tested in parallel.

[2] = tested on: HCoV-229E; test: Anti-human coronavirus 229E activity in MRC5 cells; type: cell-based; conditions: 72 h, viral cytopathic effect
[3] = tested on: HIV-IIIb; test: Anti-HIV activity in MT4 cells; type: cell-based, human immunodeficiency virus; conditions: 5 days
[4] = tested on: Caco-2 cells; test: Caco-2 cell permeability; type: in vitro ADME; conditions: Caco-2 monolayers, 10 μM
Experimental: Permeability and efflux potential were determined using confluent (≥21 day) monolayers of Caco-2 cells grown on transwell filters. Compounds were added to donor wells at a target concentration of 10 μM and rates of appearance in receiver wells (containing 1% BSA to maintain sink conditions) were determined by liquid chromatography coupled to tandem mass spectrometry (LC-MS/MS).

[5] = molecular target: T1, CYP2D6 (Homo sapiens, UniProt P10635); test: Cytochrome P450 enzyme inhibition assay, CYP2D6; type: in vitro ADME; design: incubated with human hepatic microsomal fractions and NADPH; from tissue; host or cells: human hepatic microsomal fractions; conditions: human hepatic microsomal fractions, up to 25 μM
T1 sequence (P10635 whole entry): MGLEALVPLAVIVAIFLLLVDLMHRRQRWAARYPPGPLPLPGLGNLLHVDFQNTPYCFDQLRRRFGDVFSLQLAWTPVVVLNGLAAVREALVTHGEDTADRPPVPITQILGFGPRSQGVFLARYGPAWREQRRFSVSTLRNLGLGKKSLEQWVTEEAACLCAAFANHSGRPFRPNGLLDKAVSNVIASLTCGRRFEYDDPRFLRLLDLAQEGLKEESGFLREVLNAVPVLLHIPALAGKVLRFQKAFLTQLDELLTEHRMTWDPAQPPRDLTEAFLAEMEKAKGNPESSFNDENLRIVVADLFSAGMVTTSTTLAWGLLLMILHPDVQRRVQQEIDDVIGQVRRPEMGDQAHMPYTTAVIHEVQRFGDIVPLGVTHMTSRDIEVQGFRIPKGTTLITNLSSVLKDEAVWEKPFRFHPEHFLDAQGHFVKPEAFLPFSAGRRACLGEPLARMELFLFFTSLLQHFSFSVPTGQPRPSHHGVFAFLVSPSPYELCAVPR
Experimental: Up to 25 μM of compounds 29 and 30 was incubated with human hepatic microsomal fractions and NADPH in the presence of individual probe substrates. All assays were designed so that conditions were linear with respect to time and protein concentration. Substrates were present at concentrations equal to or lower than their respective Km values. Enzyme selective products were determined by fluorometry (ethoxyresorufin O-deethylase) or by specific LC-MS/MS assays. Relative enzyme activities were determined by comparison with those assayed with DMSO vehicle instead of inhibitor. IC50 values were calculated by nonlinear curve fitting using a sigmoidal model. Positive control inhibitors for each enzyme were tested in parallel.

[6] = tested on: HCV genotype 1b replicon; test: microbe, parasite or virus in culture; type: cell-based, hepatitis C virus
[7] = molecular target: T1, CYP2D6; test: Metabolism by recombinant human cytochrome P450, CYP2D6; type: in vitro ADME; conditions: recombinant enzyme
Experimental: as §1

[8] = tested on: Huh7 cells; test: Cellular toxicity in Huh7 replicon cells; conditions: read-out: HCV genotype 1b replicon CC50; Huh7 cells
[9] = molecular target: T2, CYP2B6 (Homo sapiens, UniProt P20813); test: Metabolism by recombinant human cytochrome P450, CYP2B6; type: in vitro ADME; conditions: recombinant enzyme
T2 sequence (P20813 1-491): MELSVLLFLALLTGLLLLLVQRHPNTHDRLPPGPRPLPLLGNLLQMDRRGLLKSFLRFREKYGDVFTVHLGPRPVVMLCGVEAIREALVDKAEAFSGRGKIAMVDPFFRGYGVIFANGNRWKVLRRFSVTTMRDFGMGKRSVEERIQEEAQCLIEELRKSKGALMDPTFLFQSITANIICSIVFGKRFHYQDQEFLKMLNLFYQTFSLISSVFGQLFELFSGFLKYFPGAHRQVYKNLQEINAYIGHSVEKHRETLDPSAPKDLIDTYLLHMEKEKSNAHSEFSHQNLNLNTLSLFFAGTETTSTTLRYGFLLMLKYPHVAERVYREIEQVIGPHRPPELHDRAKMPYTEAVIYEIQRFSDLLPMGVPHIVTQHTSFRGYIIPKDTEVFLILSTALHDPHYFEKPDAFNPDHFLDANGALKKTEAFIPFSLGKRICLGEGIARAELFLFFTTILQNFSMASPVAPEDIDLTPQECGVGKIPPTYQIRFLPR
Experimental: as §1

Chain of CYP2C9 (P11712 whole entry): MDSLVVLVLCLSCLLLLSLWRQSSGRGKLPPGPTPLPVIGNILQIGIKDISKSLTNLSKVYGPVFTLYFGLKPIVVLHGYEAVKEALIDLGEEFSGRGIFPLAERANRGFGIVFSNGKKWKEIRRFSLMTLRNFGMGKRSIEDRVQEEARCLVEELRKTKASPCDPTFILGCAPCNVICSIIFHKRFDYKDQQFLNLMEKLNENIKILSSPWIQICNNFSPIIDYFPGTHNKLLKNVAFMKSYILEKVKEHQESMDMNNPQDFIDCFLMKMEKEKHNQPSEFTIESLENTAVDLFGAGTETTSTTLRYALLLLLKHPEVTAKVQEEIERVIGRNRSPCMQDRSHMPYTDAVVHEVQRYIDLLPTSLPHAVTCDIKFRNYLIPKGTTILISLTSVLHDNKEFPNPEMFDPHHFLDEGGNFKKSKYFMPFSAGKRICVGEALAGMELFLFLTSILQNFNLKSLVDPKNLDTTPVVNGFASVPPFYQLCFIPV

## CSCCC(NC(=O)NCc1ccc(N)cc1)C(=O)N1CCCC1c1ccccc1SC.O=C(O)C(F)(F)F (centres unmarked) [Compound 30]
[1]
  Rate of metabolism by human cytochrome P450 CYP2C9: 0.49 pmol/pmol P450/min
[2]
  EC50: 7.2 ± 1.8 µM
[3]
  EC50: 15 ± 1.2 µM
[4]
  Apparent permeability Forward: 19.5 ×10⁻⁶ cm/s
[4]; listed as compound 30
  Apparent permeability Forward: high
[4]; reverse
  Apparent permeability Reverse: 39.7 ×10⁻⁶ cm/s
[5]
  Inhibition of cytochrome P450 activity, IC50 CYD2D6: Neither compound 29 nor compound 30 significantly inhibited
[5]; read-out: Inhibition of cytochrome P450 activity, IC50 CYD2D6
  IC50: > 25 µM
[6]; Huh7 cells, 3 days, HCV RNA, read-out: HCV genotype 1b replicon EC50
  EC50: 1.4 ± 1.2 µM
[6]; wild-type genotype 1b replicon, comparison with mutated replicons (Table 3), read-out: EC50 HCV (WT) subgenomic replicon
  EC50: 2.1 ± 0.09 µM
[7]
  Rate of metabolism by human cytochrome P450 CYD2D6: 1.24 pmol/pmol P450/min
[8]
  CC50: > 100 µM
[9]
  Rate of metabolism by human cytochrome P450 CYP2B6: < 0.12 pmol/pmol P450/min
[9]; listed as compound 30
  Rate of metabolism by human cytochrome P450 CYP2B6: Neither compound 29 nor compound 30 was metabolized
